Results from patent US20200024278A1, “COMPOSITION COMPRISING ANTIBIOTIC COMPOUND AND AN HETEROCYCLIC COMPOUND AND THEIR USE IN PREVENTING OR TREATING BACTERIAL INFECTIONS” (MUTABILIS, priority 2016, published 2020).
Where two headings read alike, the source gives them in different places.

Experiments:
Test in all cases: MIC, broth microdilution (CLSI), substance alone or ATB combined with compound at 4 or 8 μg/mL
[1] = system: ABA UFR158; type: cell-based, A. baumannii; conditions: with Example 6 @8 μg/ml
Method: (§1) Compounds of the present invention were assessed against genotyped bacterial strains alone or in combination with an antibacterial. In the assays, MICs of said compounds or combination of antibiotics with fixed concentrations of said compounds (4 or 8 μg/mL) were determined by the broth microdilution method according to the Clinical Laboratory Standards Institute (CLSI-M7-A7). Briefly, compounds alone according to the invention were prepared in DMSO and spotted (2 μL each) on sterile polystyrene plates (Corning, 3788). Combinations of compounds and antibiotics dilutions were prepared in DMSO and spotted (1 μL each) on sterile polystyrene plates (Corning, 3788). Log phase bacterial suspensions were adjusted to a final density of 5·10^5 CFU/mL in cation-adjusted Mueller-Hinton broth (ca-MHB; Becton-Dickinson and Company) and added to each well (98 μL). Assays including Fosfomycin were supplemented with 25 μg/ml of Glucose-6-phosphate. Microplates were incubated for 16-20 h at 35° C. in ambient air. The MIC of the compounds was defined as the lowest concentration of said compounds that prevented bacterial growth as read by visual inspection. The MIC of ATB at each compound concentration was defined as the lowest concentration of ATB that prevented bacterial growth as read by visual inspection.

[2] = system: ABA UFR153; type: cell-based, A. baumannii
Method: as §1

[3] = system: ABA UFR156; type: cell-based, A. baumannii
Method: as §1

[4] = system: ABA UFR155; type: cell-based, A. baumannii
Method: as §1

[5] = system: ABA UFR157; type: cell-based, A. baumannii
Method: as §1

[6] = system: ABA UFR152; type: cell-based, A. baumannii
Method: as §1

[7] = system: ABA UFR160; type: cell-based, A. baumannii; conditions: with Example 6 @8 μg/ml
Method: as §1

[8] = system: ABA UFR151; type: cell-based, A. baumannii
Method: as §1

[9] = system: ABA UFR154; type: cell-based, A. baumannii
Method: as §1

[10] = system: ABA 19606; type: cell-based, A. baumannii
Method: as §1

[11] = system: PAE 105250; type: cell-based, P. aeruginosa; conditions: Pseudomonas aeruginosa, PAE 105250
Outline: (§2)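 CLSI broth microdilution in cation-adjusted Mueller-Hinton broth, 5·10^5 CFU/mL log-phase inoculum, 16-20 h at 35 °C in ambient air. Fosfomycin assays supplemented with 25 μg/ml glucose-6-phosphate.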

[12] = system: PAE UFR90; type: cell-based, P. aeruginosa; conditions: Pseudomonas aeruginosa, PAE UFR90
Outline: as §2

[13] = system: PAE UFR48; type: cell-based, P. aeruginosa; conditions: Pseudomonas aeruginosa, PAE UFR48
Outline: as §2

[14] = system: KPN 6299; type: cell-based, K. pneumoniae; conditions: Klebsiella pneumoniae
Outline: as §2

[15] = system: KPN UFR68; type: cell-based, K. pneumoniae; conditions: Klebsiella pneumoniae, substance alone
Outline: as §2

[16] = system: ECO 190317; type: cell-based, E. coli; conditions: Escherichia coli, ECO 190317
Outline: as §2

[17] = system: ECO UFR39; type: cell-based, E. coli; conditions: Escherichia coli, ECO UFR39
Outline: as §2

[18] = system: ECL P99; type: cell-based, E. cloacae; conditions: Enterobacter cloacae, ECL P99
Outline: as §2

[19] = system: SPN 49619; type: cell-based, S. pneumoniae; conditions: Streptococcus pneumoniae, SPN 49619
Outline: as §2

[20] = system: SAU 29213; type: cell-based, S. aureus; conditions: Staphylococcus aureus
Outline: as §2

[21] = Acinetobacter baumannii, antibiotic alone, read-out: MIC ATB alone
[22] = antibiotic alone, read-out: MIC ATB alone

Compound: C[C@@H](O)[C@H]1C(=O)N2C(C(=O)O)=C(S[C@@H]3CN[C@H](C(=O)N(C)C)C3)[C@H](C)[C@H]12 [MEM, Meropenem]
- MIC ATB combined with Example 6 @8 μg/ml [1]: <0.25 µg/mL
- MIC [2, 21]: 1 µg/mL
- MIC ATB combined with Example 1 @8 μg/ml ([2]; with Example 1 @8 μg/ml): 1 µg/mL
- MIC ATB combined with Example 3 @8 μg/ml ([2]; with Example 3 @8 μg/ml): <=0.25 μg/mL
- MIC ATB combined with Example 6 @8 μg/ml ([2]; with Example 6 @8 μg/ml): <0.25 µg/mL
- MIC ATB combined with Example 9 @4 μg/ml ([2]; with Example 9 @4 μg/ml): <=0.25 μg/mL
- MIC ATB combined with Example 10 @8 μg/ml ([2]; with Example 10 @8 μg/ml): <=0.25 μg/mL
- MIC ATB combined with Example 11 @8 μg/ml ([2]; with Example 11 @8 μg/ml): 1 µg/mL
- MIC ATB combined with Example 12 @8 μg/ml ([2]; with Example 12 @8 μg/ml): <=0.25 μg/mL
- MIC ATB combined with Example 15 @4 μg/ml ([2]; with Example 15 @4 μg/ml): <=0.25 μg/mL
- MIC [3, 21]: 64 µg/mL
- MIC ATB combined with Example 1 @8 μg/ml ([3]; with Example 1 @8 μg/ml): 64 µg/mL
- MIC ATB combined with Example 3 @8 μg/ml ([3]; with Example 3 @8 μg/ml): 8 µg/mL
- MIC ATB combined with Example 6 @8 μg/ml ([3]; with Example 6 @8 μg/ml): 16 µg/mL
- MIC ATB combined with Example 9 @4 μg/ml ([3]; with Example 9 @4 μg/ml): 64 µg/mL
- MIC ATB combined with Example 10 @8 μg/ml ([3]; with Example 10 @8 μg/ml): 8 µg/mL
- MIC ATB combined with Example 11 @8 μg/ml ([3]; with Example 11 @8 μg/ml): 64 µg/mL
- MIC ATB combined with Example 12 @8 μg/ml ([3]; with Example 12 @8 μg/ml): 32 µg/mL
- MIC ATB combined with Example 15 @4 μg/ml ([3]; with Example 15 @4 μg/ml): 64 µg/mL
- MIC [4, 21]: 32 µg/mL
- MIC ATB combined with Example 1 @8 μg/ml ([4]; with Example 1 @8 μg/ml): 16 µg/mL
- MIC ATB combined with Example 3 @8 μg/ml ([4]; with Example 3 @8 μg/ml): 8 µg/mL
- MIC ATB combined with Example 6 @8 μg/ml ([4]; with Example 6 @8 μg/ml): 16 µg/mL
- MIC ATB combined with Example 9 @4 μg/ml ([4]; with Example 9 @4 μg/ml): 16 µg/mL
- MIC ATB combined with Example 10 @8 μg/ml ([4]; with Example 10 @8 μg/ml): 8 µg/mL
- MIC ATB combined with Example 11 @8 μg/ml ([4]; with Example 11 @8 μg/ml): 16 µg/mL
- MIC ATB combined with Example 12 @8 μg/ml ([4]; with Example 12 @8 μg/ml): 16 µg/mL
- MIC ATB combined with Example 15 @4 μg/ml ([4]; with Example 15 @4 μg/ml): 64 µg/mL
- MIC [5, 21]: 32 µg/mL
- MIC ATB combined with Example 1 @8 μg/ml ([5]; with Example 1 @8 μg/ml): 1 µg/mL
- MIC ATB combined with Example 3 @8 μg/ml ([5]; with Example 3 @8 μg/ml): <=0.25 μg/mL
- MIC ATB combined with Example 6 @8 μg/ml ([5]; with Example 6 @8 μg/ml): <=0.25 μg/mL
- MIC ATB combined with Example 9 @4 μg/ml ([5]; with Example 9 @4 μg/ml): 1 µg/mL
- MIC ATB combined with Example 10 @8 μg/ml ([5]; with Example 10 @8 μg/ml): 0.5 µg/mL
- MIC ATB combined with Example 11 @8 μg/ml ([5]; with Example 11 @8 μg/ml): 0.5 µg/mL
- MIC ATB combined with Example 12 @8 μg/ml ([5]; with Example 12 @8 μg/ml): <=0.25 μg/mL
- MIC ATB combined with Example 15 @4 μg/ml ([5]; with Example 15 @4 μg/ml): 0.5 µg/mL
- MIC [6, 21]: 2 µg/mL
- MIC ATB combined with Example 1 @8 μg/ml ([6]; with Example 1 @8 μg/ml): 4 µg/mL
- MIC ATB combined with Example 3 @8 μg/ml ([6]; with Example 3 @8 μg/ml): 1 µg/mL
- MIC ATB combined with Example 6 @8 μg/ml ([6]; with Example 6 @8 μg/ml): 2 µg/mL
- MIC ATB combined with Example 9 @4 μg/ml ([6]; with Example 9 @4 μg/ml): 1 µg/mL
- MIC ATB combined with Example 10 @8 μg/ml ([6]; with Example 10 @8 μg/ml): 1 µg/mL
- MIC ATB combined with Example 11 @8 μg/ml ([6]; with Example 11 @8 μg/ml): 1 µg/mL
- MIC ATB combined with Example 12 @8 μg/ml ([6]; with Example 12 @8 μg/ml): 1 µg/mL
- MIC ATB combined with Example 15 @4 μg/ml ([6]; with Example 15 @4 μg/ml): 1 µg/mL
- MIC ATB combined with Example 6 @8 μg/ml [7]: <0.25 µg/mL
- MIC [8, 21]: 0.5 µg/mL
- MIC ATB combined with Example 1 @8 μg/ml ([8]; with Example 1 @8 μg/ml): <=0.25 μg/mL
- MIC ATB combined with Example 3 @8 μg/ml ([8]; with Example 3 @8 μg/ml): <=0.25 μg/mL
- MIC ATB combined with Example 6 @8 μg/ml ([8]; with Example 6 @8 μg/ml): <=0.25 μg/mL
- MIC ATB combined with Example 9 @4 μg/ml ([8]; with Example 9 @4 μg/ml): <=0.25 μg/mL
- MIC ATB combined with Example 10 @8 μg/ml ([8]; with Example 10 @8 μg/ml): <=0.25 μg/mL
- MIC ATB combined with Example 11 @8 μg/ml ([8]; with Example 11 @8 μg/ml): 0.5 µg/mL
- MIC ATB combined with Example 12 @8 μg/ml ([8]; with Example 12 @8 μg/ml): <=0.25 μg/mL
- MIC ATB combined with Example 15 @4 μg/ml ([8]; with Example 15 @4 μg/ml): 0.5 µg/mL
- MIC [9, 21]: 1 µg/mL
- MIC ATB combined with Example 1 @8 μg/ml ([9]; with Example 1 @8 μg/ml): 0.5 µg/mL
- MIC ATB combined with Example 3 @8 μg/ml ([9]; with Example 3 @8 μg/ml): <=0.25 μg/mL
- MIC ATB combined with Example 6 @8 μg/ml ([9]; with Example 6 @8 μg/ml): 0.5 µg/mL
- MIC ATB combined with Example 9 @4 μg/ml ([9]; with Example 9 @4 μg/ml): 0.5 µg/mL
- MIC ATB combined with Example 10 @8 μg/ml ([9]; with Example 10 @8 μg/ml): <=0.25 μg/mL
- MIC ATB combined with Example 11 @8 μg/ml ([9]; with Example 11 @8 μg/ml): 1 µg/mL
- MIC ATB combined with Example 12 @8 μg/ml ([9]; with Example 12 @8 μg/ml): <=0.25 μg/mL
- MIC ATB combined with Example 15 @4 μg/ml ([9]; with Example 15 @4 μg/ml): 0.5 µg/mL
- MIC [10, 21]: 1 µg/mL
- MIC ATB combined with Example 1 @8 μg/ml ([10]; with Example 1 @8 μg/ml): 1 µg/mL
- MIC ATB combined with Example 3 @8 μg/ml ([10]; with Example 3 @8 μg/ml): <=0.25 μg/mL
- MIC ATB combined with Example 6 @8 μg/ml ([10]; with Example 6 @8 μg/ml): <=0.25 μg/mL
- MIC ATB combined with Example 9 @4 μg/ml ([10]; with Example 9 @4 μg/ml): 2 µg/mL
- MIC ATB combined with Example 10 @8 μg/ml ([10]; with Example 10 @8 μg/ml): <=0.25 μg/mL
- MIC ATB combined with Example 11 @8 μg/ml ([10]; with Example 11 @8 μg/ml): 0.5 µg/mL
- MIC ATB combined with Example 12 @8 μg/ml ([10]; with Example 12 @8 μg/ml): <=0.25 μg/mL
- MIC ATB combined with Example 15 @4 μg/ml ([10]; with Example 15 @4 μg/ml): 0.5 µg/mL
- MIC [11, 22]: 4 µg/mL
- MIC ([11]; substance alone, read-out: MIC): 4 µg/mL
- MIC [12, 22]: 2 µg/mL
- MIC ([12]; substance alone, read-out: MIC): 2 µg/mL
- MIC [13, 22]: 4 µg/mL
- MIC ([13]; substance alone, read-out: MIC): 4 µg/mL
- MIC [14, 22]: 1 µg/mL
- MIC ([14]; substance alone, read-out: MIC): 1 µg/mL
- MIC [15]: 32 µg/mL
- MIC [16, 22]: 0.031 µg/mL
- MIC ([16]; substance alone, read-out: MIC): 0.031 µg/mL
- MIC [17, 22]: 64 µg/mL
- MIC ([17]; substance alone, read-out: MIC): 64 µg/mL
- MIC [18, 22]: 0.063 µg/mL
- MIC ([18]; substance alone, read-out: MIC): 0.063 µg/mL
- MIC [19, 22]: 0.063 µg/mL
- MIC ([19]; substance alone, read-out: MIC): 0.063 µg/mL
- MIC ([20]; MSSA): 0.125 µg/mL
- MIC ([20]; antibiotic alone, SAU 29213, read-out: MIC ATB alone): 0.125 µg/mL
